Patent publication US8076487B2, “Pyridone derivative and herbicide” (Kumiai Chemical Industry Co., Ltd., priority 2006, dated 2011)

Columns and labels:
Format in all cases: in vivo
[1] = system: velvetleaf (Abutilon theophrasti medicus); test: Test Example 3: herbicidal effect by application to upland field (foliage treatment); details: 14th day after application; for herbicidal effect, Velvetleaf: foliage treatment, 1,000 g active ingredient per 1 hectare, greenhouse
How it was run: (§1)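 Foliage treatment, greenhouse: 2-week-old plants in field soil; wettable powder in water sprayed over the top at 1,000 g a.i./ha (1,000 L/ha); rating on day 14 post-application.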

[2] = system: slender amaranth (Amaranthus viridis L.); test: as above; details: 14th day after application; for herbicidal effect, Slender Amaranth: foliage treatment, 1,000 g active ingredient per 1 hectare, greenhouse
How it was run: as §1

[3] = system: green foxtail (Setaria viridis (L.) P. Beauv.); test: as above; details: 14th day after application; for herbicidal effect, Green Foxtail: foliage treatment, 1,000 g active ingredient per 1 hectare, greenhouse
How it was run: as §1

[4] = system: barnyardgrass (Echinochloa crus-galli (L.) P. Beauv. var. crus-galli); test: as above; details: 14th day after application; for herbicidal effect, Barnyardgrass: foliage treatment, 1,000 g active ingredient per 1 hectare, greenhouse
How it was run: as §1

[5] = system: heartshape false pickerelweed (Monochoria vaginalis (Burm.f.) C.Presl); test: Test Example 1: herbicidal effect by soil application to paddy field; details: paddy field soil application; active ingredient 1,000 g per 1 hectare; wettable powder added dropwise to water surface the day after sowing; examined on the 21st day after application
How it was run: (§2)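 Under greenhouse conditions, seeds sown on puddled paddy soil in 100 cm2 pots under 3 cm of standing water received the test compound; injury was assessed with a standard scoring scheme three weeks (day 21) after treatment.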

[6] = system: early watergrass (Echinochloa oryzicola Vasing); test: as above; details: paddy field soil application; active ingredient 1,000 g per 1 hectare; wettable powder added dropwise to water surface the day after sowing; examined on the 21st day after application
How it was run: as §2

[7] = system: Japanese bulrush (Scirpus juncoides Roxb.); test: as above; details: paddy field soil application; active ingredient 1,000 g per 1 hectare; wettable powder added dropwise to water surface the day after sowing; examined on the 21st day after application
How it was run: as §2

[8] = system: velvetleaf (Abutilon theophrasti medicus); test: Test Example 2: herbicidal effect by soil application to upland field; details: soil surface spray, upland field soil, 1,000 g active ingredient per hectare, 21st day after application
How it was run: (§3)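 In this soil-application test, sown and soil-covered pots are sprayed uniformly with the formulation diluted in water, giving 1,000 g of active ingredient per ha in a volume of 1,000 L per ha. Plants then grow in a greenhouse for 21 days before herbicidal scoring by a standard scale.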

[9] = system: slender amaranth (Amaranthus viridis L.); test: as above; details: soil surface spray, upland field soil, 1,000 g active ingredient per hectare, 21st day after application
How it was run: as §3

[10] = system: green foxtail (Setaria viridis (L.) P. Beauv.); test: as above; details: soil surface spray, upland field soil, 1,000 g active ingredient per hectare, 21st day after application
How it was run: as §3

[11] = system: barnyardgrass (Echinochloa crus-galli (L.) P. Beauv. var. crus-galli); test: as above; details: soil surface spray, upland field soil, 1,000 g active ingredient per hectare, 21st day after application
How it was run: as §3

[12] = foliage treatment, plants grown two weeks, 1,000 g active ingredient per hectare

| Structure (SMILES) | herbicidal effect, Velvetleaf [1] | herbicidal effect, Slender Amaranth [2] | herbicidal effect, Green Foxtail [3] | herbicidal effect, Barnyardgrass [4] | herbicidal effect, Monochoria vaginalis (Burm. f.) C. Presl [5] | herbicidal effect, Echinochloa oryzicola Vasing [6] | herbicidal effect, Scirpus juncoides Roxb. [7] | herbicidal effect (index), Velvetleaf [8] | herbicidal effect (index), Slender Amaranth [9] | herbicidal effect (index), Green Foxtail [10] | herbicidal effect (index), Barnyardgrass [11] | herbicidal effect (index), Velvetleaf [1, 12] | herbicidal effect (index), Slender Amaranth [2, 12] | herbicidal effect (index), Green Foxtail [3, 12] | herbicidal effect (index), Barnyardgrass [4, 12] |
| --- | --- | --- | --- | --- | --- | --- | --- | --- | --- | --- | --- | --- | --- | --- | --- |
| CCCCNn1c(C(F)(F)F)ccc(C(=O)C2=C(O)CCCC2=O)c1=O [I-161] | 5 (90% or more of herbicidal effect and crop phytotoxicity) | 5 (90% or more of herbicidal effect and crop phytotoxicity) | 5 (90% or more of herbicidal effect and crop phytotoxicity) | 5 (90% or more of herbicidal effect and crop phytotoxicity) | 5 (90% or more of herbicidal effect and crop phytotoxicity) | 5 (90% or more of herbicidal effect and crop phytotoxicity) | 5 (90% or more of herbicidal effect and crop phytotoxicity) | 5 (90% or more of herbicidal effect and crop phytotoxicity) | 5 (90% or more of herbicidal effect and crop phytotoxicity) | 5 (90% or more of herbicidal effect and crop phytotoxicity) | 5 (90% or more of herbicidal effect and crop phytotoxicity) |  |  |  |  |
| O=C1CCCC(O)=C1C(=O)c1ccc(C(F)(F)F)n(Cc2ccccc2)c1=O [I-114] | 5 (90% or more of herbicidal effect and crop phytotoxicity) | 5 (90% or more of herbicidal effect and crop phytotoxicity) | 4 (70 to less than 90% of herbicidal effect and crop phytotoxicity) | 5 (90% or more of herbicidal effect and crop phytotoxicity) | 5 (90% or more of herbicidal effect and crop phytotoxicity) | 5 (90% or more of herbicidal effect and crop phytotoxicity) | 5 (90% or more of herbicidal effect and crop phytotoxicity) | 5 (90% or more of herbicidal effect and crop phytotoxicity) | 5 (90% or more of herbicidal effect and crop phytotoxicity) | 4 (70 to less than 90% of herbicidal effect and crop phytotoxicity) | 5 (90% or more of herbicidal effect and crop phytotoxicity) |  |  |  |  |
| O=C1CCCC(O)=C1C(=O)c1ccc(C(F)(F)F)n(CSCC2CC2)c1=O [I-57] |  |  |  |  | 5 (90% or more of herbicidal effect and crop phytotoxicity) | 5 (90% or more of herbicidal effect and crop phytotoxicity) | 5 (90% or more of herbicidal effect and crop phytotoxicity) | 5 (90% or more of herbicidal effect and crop phytotoxicity) | 5 (90% or more of herbicidal effect and crop phytotoxicity) | 5 (90% or more of herbicidal effect and crop phytotoxicity) | 5 (90% or more of herbicidal effect and crop phytotoxicity) | 5 (90% or more of herbicidal effect and crop phytotoxicity) | 5 (90% or more of herbicidal effect and crop phytotoxicity) | 5 (90% or more of herbicidal effect and crop phytotoxicity) | 5 (90% or more of herbicidal effect and crop phytotoxicity) |
| CCCNn1c(C(F)(F)F)ccc(C(=O)c2cnn(C)c2O)c1=O [IV-148] | 5 (90% or more of herbicidal effect and crop phytotoxicity) | 5 (90% or more of herbicidal effect and crop phytotoxicity) | 5 (90% or more of herbicidal effect and crop phytotoxicity) | 5 (90% or more of herbicidal effect and crop phytotoxicity) | 5 (90% or more of herbicidal effect and crop phytotoxicity) | 5 (90% or more of herbicidal effect and crop phytotoxicity) | 5 (90% or more of herbicidal effect and crop phytotoxicity) | 5 (90% or more of herbicidal effect and crop phytotoxicity) | 5 (90% or more of herbicidal effect and crop phytotoxicity) | 5 (90% or more of herbicidal effect and crop phytotoxicity) | 5 (90% or more of herbicidal effect and crop phytotoxicity) |  |  |  |  |
| Cn1ncc(C(=O)c2ccc(C(F)(F)F)n(CCC=C(Cl)Cl)c2=O)c1O [IV-30] | 5 (90% or more of herbicidal effect and crop phytotoxicity) | 5 (90% or more of herbicidal effect and crop phytotoxicity) | 5 (90% or more of herbicidal effect and crop phytotoxicity) | 5 (90% or more of herbicidal effect and crop phytotoxicity) | 5 (90% or more of herbicidal effect and crop phytotoxicity) | 5 (90% or more of herbicidal effect and crop phytotoxicity) | 5 (90% or more of herbicidal effect and crop phytotoxicity) | 5 (90% or more of herbicidal effect and crop phytotoxicity) | 5 (90% or more of herbicidal effect and crop phytotoxicity) | 3 (50 to less than 70% of herbicidal effect and crop phytotoxicity) | 5 (90% or more of herbicidal effect and crop phytotoxicity) |  |  |  |  |
| Cn1ncc(C(=O)c2ccc(C(F)(F)F)n(C)c2=O)c1O [IV-1, 4-[1,2-dihydro-1-methyl-2-oxo-6-(trifluoromethyl)pyridine-3-carbonyl]-5-hydroxy-1-methyl-1H-pyrazole] | 5 (90% or more of herbicidal effect and crop phytotoxicity) | 5 (90% or more of herbicidal effect and crop phytotoxicity) | 4 (70 to less than 90% of herbicidal effect and crop phytotoxicity) | 4 (70 to less than 90% of herbicidal effect and crop phytotoxicity) | 5 (90% or more of herbicidal effect and crop phytotoxicity) | 5 (90% or more of herbicidal effect and crop phytotoxicity) | 5 (90% or more of herbicidal effect and crop phytotoxicity) | 5 (90% or more of herbicidal effect and crop phytotoxicity) | 5 (90% or more of herbicidal effect and crop phytotoxicity) | 4 (70 to less than 90% of herbicidal effect and crop phytotoxicity) | 5 (90% or more of herbicidal effect and crop phytotoxicity) |  |  |  |  |
